Laboratory results published in ChEMBL document CHEMBL1201862, “PubChem BioAssay data set” (2004).
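Where inhibition never reached the appropriate level, the endpoint shown equals the highest concentration tested. Otherwise, values were interpolated linearly from a five-concentration, 48-hour dose response in 96-well plates. GI50: concentration for 50% inhibition of growth.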 The source made the active and inactive calls. Cut-off read from the data, not from the text of the source: active = GI50 up to about 1.1 µM and inactive = higher.

Key:
Assay in all cases: DTP human tumour cell line panel, 48 h
KM12 = system: KM12
MCF7 = system: MCF7
LOX IMVI = system: LOX IMVI
PC-3 = system: PC-3
NCI-H226 = system: NCI-H226
NCI/ADR-RES = system: NCI/ADR-RES
SK-MEL-28 = system: SK-MEL-28
OVCAR-8 = system: OVCAR-8
SK-OV-3 = system: SK-OV-3
SR = system: SR
BT-549 = system: BT-549
786-0 = system: 786-0
HL-60 = system: HL-60
HCT-15 = system: HCT-15
U-251 = system: U-251
UO-31 = system: UO-31
IGROV-1 = system: IGROV-1
SNB-19 = system: SNB-19
HOP-62 = system: HOP-62
NCI-H522 = system: NCI-H522
EKVX = system: EKVX
A549 = system: A549
SK-MEL-5 = system: SK-MEL-5
UACC-62 = system: UACC-62
SNB-75 = system: SNB-75
RPMI-8226 = system: RPMI-8226
CCRF-CEM = system: CCRF-CEM
HT-29 = system: HT-29
SF-539 = system: SF-539
OVCAR-4 = system: OVCAR-4
SK-MEL-2 = system: SK-MEL-2
HCT-116 = system: HCT-116
Malme-3M = system: Malme-3M
CAKI-1 = system: CAKI-1
MDA-MB-435 = system: MDA-MB-435
RXF 393 = system: RXF 393
UACC-257 = system: UACC-257
SF-268 = system: SF-268
NCI-H460 = system: NCI-H460
SF-295 = system: SF-295
MDA-MB-231 = system: MDA-MB-231
Hs-578T = system: Hs-578T
A498 = system: A498
TK-10 = system: TK-10
OVCAR-3 = system: OVCAR-3
K562 = system: K562
M14 = system: M14
MOLT-4 = system: MOLT-4
OVCAR-5 = system: OVCAR-5
COLO 205 = system: COLO 205
SW-620 = system: SW-620
SN12C = system: SN12C
HOP-92 = system: HOP-92
NCI-H23 = system: NCI-H23
ACHN = system: ACHN
MDA-N = system: MDA-N
HCC 2998 = system: HCC 2998
DU-145 = system: DU-145

For `COc1ccccc1N=C(S)Nc1ccccn1`, the GI50 (KM12) was > 100 µM (inactive), the GI50 (MCF7) was > 100 µM (inactive) and the GI50 (LOX IMVI) was > 100 µM (inactive). For the same molecule, the GI50 (PC-3) was > 100 µM (inactive), the GI50 (NCI-H226) was > 100 µM (inactive) and the GI50 (NCI/ADR-RES) was > 100 µM (inactive). The GI50 (SK-MEL-28) was > 100 µM (inactive), the GI50 (OVCAR-8) was 99.8 µM (inactive) and the GI50 (SK-OV-3) was > 100 µM (inactive). For the same molecule, the GI50 (SR) was > 100 µM (inactive), the GI50 (BT-549) was > 100 µM (inactive) and the GI50 (786-0) was 56.5 µM (inactive). For the same molecule, the GI50 (HL-60) was > 100 µM (inactive), the GI50 (HCT-15) was > 100 µM and the GI50 (U-251) was 58.5 µM (inactive). The GI50 (UO-31) was > 100 µM (inactive), the GI50 (IGROV-1) was > 100 µM (inactive) and the GI50 (SNB-19) was 73.8 µM (inactive). The GI50 (HOP-62) was 63.4 µM (inactive), the GI50 (NCI-H522) was 43.4 µM (inactive) and the GI50 (EKVX) was 55 µM (inactive). For the same molecule, the GI50 (A549) was > 100 µM (inactive), the GI50 (SK-MEL-5) was > 100 µM (inactive) and the GI50 (UACC-62) was > 100 µM (inactive). The GI50 (SNB-75) was 36.7 µM (inactive), the GI50 (RPMI-8226) was > 100 µM (inactive) and the GI50 (CCRF-CEM) was > 100 µM (inactive). The GI50 (HT-29) was > 100 µM (inactive), the GI50 (SF-539) was 67.9 µM (inactive) and the GI50 (OVCAR-4) was > 100 µM (inactive). For the same molecule, the GI50 (SK-MEL-2) was > 100 µM (inactive), the GI50 (HCT-116) was > 100 µM (inactive) and the GI50 (Malme-3M) was > 100 µM (inactive). For the same molecule, the GI50 (CAKI-1) was > 100 µM (inactive), the GI50 (MDA-MB-435) was > 100 µM (inactive) and the GI50 (RXF 393) was 59 µM (inactive). The GI50 (UACC-257) was > 100 µM (inactive), the GI50 (SF-268) was 45.6 µM (inactive) and the GI50 (NCI-H460) was > 100 µM (inactive). The GI50 (SF-295) was 66.2 µM (inactive), the GI50 (MDA-MB-231) was > 100 µM (inactive) and the GI50 (Hs-578T) was 84.7 µM (inactive). For the same molecule, the GI50 (A498) was > 100 µM (inactive), the GI50 (TK-10) was 64.1 µM (inactive) and the GI50 (OVCAR-3) was > 100 µM (inactive). For the same molecule, the GI50 (K562) was > 100 µM (inactive), the GI50 (M14) was > 100 µM (inactive) and the GI50 (MOLT-4) was > 100 µM (inactive). The GI50 (OVCAR-5) was > 100 µM (inactive), the GI50 (COLO 205) was > 100 µM (inactive) and the GI50 (SW-620) was > 100 µM (inactive).

In the case of `COc1ccc(-c2nc3ncccn3c2-c2ccc(SC)cc2)cc1`, the GI50 (KM12) is reported as 0.453 µM (active), the GI50 (LOX IMVI) is reported as 2.14 µM (inactive) and the GI50 (PC-3) is reported as 3.13 µM (inactive). For the same molecule, the GI50 (SN12C) was 3.92 µM (inactive), the GI50 (NCI/ADR-RES) was 1.46 µM (inactive) and the GI50 (SK-MEL-28) was 16.9 µM (inactive). The GI50 (OVCAR-8) was 3.92 µM (inactive), the GI50 (SK-OV-3) was 0.439 µM (active) and the GI50 (SR) was 0.507 µM (active). For the same molecule, the GI50 (BT-549) was 1.45 µM (inactive), the GI50 (786-0) was 4.59 µM (inactive) and the GI50 (HL-60) was 1.73 µM (inactive). The GI50 (HCT-15) was 1.51 µM, the GI50 (U-251) was 2.44 µM (inactive) and the GI50 (UO-31) was 4.46 µM (inactive). The GI50 (IGROV-1) was 2.04 µM (inactive), the GI50 (HOP-92) was 7.18 µM (inactive) and the GI50 (SNB-19) was 1.19 µM (inactive). The GI50 (HOP-62) was 5.64 µM (inactive), the GI50 (NCI-H522) was 0.23 µM (active) and the GI50 (A549) was 2.88 µM (inactive). For the same molecule, the GI50 (SK-MEL-5) was 0.953 µM (active), the GI50 (UACC-62) was 0.916 µM (active) and the GI50 (SNB-75) was 5.96 µM (inactive). The GI50 (RPMI-8226) was 2.48 µM (inactive), the GI50 (CCRF-CEM) was 2.28 µM (inactive) and the GI50 (NCI-H23) was 3.3 µM (inactive). For the same molecule, the GI50 (HT-29) was 3.09 µM (inactive), the GI50 (SF-539) was 1.83 µM (inactive) and the GI50 (ACHN) was 7.57 µM (inactive). The GI50 (OVCAR-4) was 8.69 µM (inactive), the GI50 (SK-MEL-2) was 1.32 µM (inactive) and the GI50 (HCT-116) was 1.1 µM (active). For the same molecule, the GI50 (MDA-N) was 0.237 µM (active), the GI50 (CAKI-1) was 0.74 µM (active) and the GI50 (MDA-MB-435) was 0.213 µM (active). For the same molecule, the GI50 (UACC-257) was > 100 µM (inactive), the GI50 (SF-268) was 0.418 µM (active) and the GI50 (NCI-H460) was 2.18 µM (inactive). The GI50 (SF-295) was 0.989 µM (active), the GI50 (MDA-MB-231) was 4.24 µM (inactive) and the GI50 (Hs-578T) was 1.74 µM (inactive). For the same molecule, the GI50 (OVCAR-3) was 0.44 µM (active), the GI50 (K562) was 0.869 µM (active) and the GI50 (M14) was 1.48 µM (inactive). For the same molecule, the GI50 (MOLT-4) was 3.7 µM (inactive), the GI50 (OVCAR-5) was 2.42 µM (inactive) and the GI50 (COLO 205) was 1.33 µM (inactive). For the same molecule, the GI50 (SW-620) was 1.48 µM (inactive).

In the case of `NNC(=O)c1c(-c2cccnc2)cnc2ccccc12`, the GI50 (KM12) is reported as > 100 µM (inactive), the GI50 (MCF7) is reported as > 100 µM (inactive) and the GI50 (PC-3) is reported as > 100 µM (inactive). The GI50 (SN12C) was > 100 µM (inactive), the GI50 (NCI-H226) was > 100 µM (inactive) and the GI50 (NCI/ADR-RES) was > 100 µM (inactive). For the same molecule, the GI50 (SK-MEL-28) was > 100 µM (inactive), the GI50 (OVCAR-8) was > 100 µM (inactive) and the GI50 (SK-OV-3) was 4.02 µM (inactive). For the same molecule, the GI50 (SR) was > 100 µM (inactive), the GI50 (BT-549) was > 100 µM (inactive) and the GI50 (786-0) was > 100 µM (inactive). The GI50 (HL-60) was > 100 µM (inactive), the GI50 (HCT-15) was > 100 µM and the GI50 (U-251) was > 100 µM (inactive). For the same molecule, the GI50 (UO-31) was > 100 µM (inactive), the GI50 (IGROV-1) was > 100 µM (inactive) and the GI50 (HOP-92) was > 100 µM (inactive). For the same molecule, the GI50 (SNB-19) was > 100 µM (inactive), the GI50 (HOP-62) was > 100 µM (inactive) and the GI50 (NCI-H522) was > 100 µM (inactive). The GI50 (HCC 2998) was > 100 µM (inactive), the GI50 (EKVX) was > 100 µM (inactive) and the GI50 (A549) was > 100 µM (inactive). For the same molecule, the GI50 (SK-MEL-5) was > 100 µM (inactive), the GI50 (UACC-62) was > 100 µM (inactive) and the GI50 (SNB-75) was 45.6 µM (inactive). The GI50 (RPMI-8226) was > 100 µM (inactive), the GI50 (DU-145) was > 100 µM (inactive) and the GI50 (CCRF-CEM) was > 100 µM (inactive). The GI50 (NCI-H23) was > 100 µM (inactive), the GI50 (HT-29) was > 100 µM (inactive) and the GI50 (SF-539) was > 100 µM (inactive). For the same molecule, the GI50 (ACHN) was > 100 µM (inactive), the GI50 (OVCAR-4) was > 100 µM (inactive) and the GI50 (SK-MEL-2) was > 100 µM (inactive). For the same molecule, the GI50 (HCT-116) was > 100 µM (inactive), the GI50 (Malme-3M) was > 100 µM (inactive) and the GI50 (MDA-N) was > 100 µM (inactive). The GI50 (CAKI-1) was > 100 µM (inactive), the GI50 (RXF 393) was > 100 µM (inactive) and the GI50 (UACC-257) was > 100 µM (inactive). For the same molecule, the GI50 (SF-268) was > 100 µM (inactive), the GI50 (NCI-H460) was > 100 µM (inactive) and the GI50 (SF-295) was > 100 µM (inactive). For the same molecule, the GI50 (TK-10) was > 100 µM (inactive), the GI50 (OVCAR-3) was > 100 µM (inactive) and the GI50 (K562) was > 100 µM (inactive). For the same molecule, the GI50 (M14) was > 100 µM (inactive), the GI50 (MOLT-4) was > 100 µM (inactive) and the GI50 (OVCAR-5) was > 100 µM (inactive). The GI50 (COLO 205) was > 100 µM (inactive) and the GI50 (SW-620) was > 100 µM (inactive).
